Data as given in patent publication US20150004202A1, “ANTIBACTERIAL AGENT AGAINST PLANT DISEASE-CAUSING BACTERIA” (priority 2012, published 2015).
Where two headings read alike, the source gives them in different places.

Key:
[1] = system: Clavibacter michiganensis subsp. michiganensis (field isolates KNOB16, KNOB23), tomato canker-causing bacteria; test: MIC by broth microdilution (investigation of measurement conditions); assay type: cell-based
[2] = system: Ralstonia solanacearum (field isolates KNOB38, KNOB39), eggplant wilt-causing bacteria; test: microbe, parasite or virus in culture; assay type: cell-based
[3] = system: field isolates listed in Table 6 (KNOB30 to KNOB110), bacteria pathogenic to crops; test: MIC of various amino acid-containing particles, HI medium; assay type: cell-based; conditions: 24 hours after addition
Method: (1) Freeze-stored 4 strains were seeded on heart infusion medium and PSA medium. (2) Seeded bacteria were cultured at 25° C. for 48 hours. (3) The antibacterial activity was assessed by measurement of the minimum inhibitory concentration (MIC) in accordance with a broth microdilution method. HI medium prepared without agar was used as a liquid medium. […] The above-described antibacterial agents were added to the liquid media at various concentrations, respectively, and the cultured bacteria described in (2) were inoculated thereto, followed by judgement of the results 24 hours and 48 hours after inoculation. The tests were repeated three times (n=3).
The antibacterial activity of nanoparticles containing Gly, Arg, Asp, or Ala produced above was examined. As test bacteria, field isolates listed in Table 6, tomato canker-causing bacteria standard strains (JCM1370, JCM1373), and kidney bean wilt-causing bacterium Curtobacterium flaccumfaciens pv. flaccumfaciens standard strain (JCM1347) were used.

[4] = system: tomato canker-causing bacteria standard strains (JCM1370, JCM1373); assay type: cell-based, Clavibacter michiganensis subsp. michiganensis; conditions: 24 hours after addition
[5] = system: Curtobacterium flaccumfaciens pv. flaccumfaciens standard strain (JCM1347), kidney bean wilt-causing bacterium; test: MIC of various amino acid-containing particles, HI medium; assay type: cell-based; conditions: 24 hours after addition
[6] = Clavibacter michiganensis, 24 h, KNOB16, HI medium, 24 H later
[7] = Clavibacter michiganensis, 24 h, KNOB16, PSA medium, 24 H later
[8] = Clavibacter michiganensis, 24 h, KNOB23, HI medium, 24 H later
[9] = Clavibacter michiganensis, 24 h, KNOB23, PSA medium, 24 H later
[10] = Clavibacter michiganensis, 48 h, KNOB16, HI medium, 48 H later
[11] = Clavibacter michiganensis, 48 h, KNOB16, PSA medium, 48 H later
[12] = Clavibacter michiganensis, 48 h, KNOB23, HI medium, 48 H later
[13] = Clavibacter michiganensis, 48 h, KNOB23, PSA medium, 48 H later
[14] = 24 h, KNOB30, HI medium, read-out: MIC
[15] = 24 h, KNOB33, HI medium, read-out: MIC
[16] = 24 h, KNOB67, HI medium, read-out: MIC
[17] = 24 h, KNOB75, HI medium, read-out: MIC
[18] = 24 h, KNOB105, HI medium, read-out: MIC
[19] = 24 h, KNOB106, HI medium, read-out: MIC
[20] = 24 h, KNOB108, HI medium, read-out: MIC
[21] = 24 h, KNOB110, HI medium, read-out: MIC
[22] = Curtobacterium flaccumfaciens, read-out: MIC

CC1(C)S[C@@H]2[C@H](NC(=O)[C@H](N)c3ccccc3)C(=O)N2[C@H]1C(=O)O [ABPC, ampicillin]
< 0.25 µg/mL: MIC [3, 15] | MIC ([3]; 24 h, KNOB64, HI medium) | MIC [3, 16] | MIC [3, 18] | MIC [3, 19] | MIC [3, 21]
0.5 µg/mL: MIC [1, 7] | MIC [1, 9] | MIC [1, 13] | MIC ([2]; KNOB39, HI medium, 24 H later) | MIC ([2]; KNOB39, HI medium, 48 H later) | MIC ([2]; Ralstonia solanacearum, 24 h) | MIC ([2]; Ralstonia solanacearum, 48 h) | MIC [3, 14] | MIC [3, 17] | MIC [3, 20] | MIC ([4]; JCM1370, HI medium)
0.25 µg/mL: MIC [1, 6] | MIC [1, 8] | MIC [1, 10] | MIC [1, 12]
2 µg/mL: MIC [5, 22]
1 µg/mL: MIC [1, 11] | MIC ([4]; JCM1373, HI medium)

CCO [EtOH, ethanol]
7.5 µg/mL: MIC ([1]; KNOB16, PSA medium, 48 H later) | MIC ([1]; KNOB23, PSA medium, 24 H later) | MIC ([2]; KNOB38, HI medium, 24 H later) | MIC ([2]; KNOB39, HI medium, 24 H later) | MIC ([2]; KNOB39, HI medium, 48 H later) | MIC ([3]; KNOB106, HI medium)
60 µg/mL: MIC ([1]; KNOB16, PSA medium, 24 H later) | MIC ([3]; KNOB75, HI medium)
stronger than KAS and nanoparticles: antibacterial activity against eggplant wilt-causing bacteria compared with KAS ([2]; comparison of MIC values of Table 5)
30 µg/mL: MIC ([1]; KNOB16, HI medium, 48 H later) | MIC ([1]; KNOB23, HI medium, 48 H later) | MIC ([3]; KNOB30, HI medium) | MIC ([3]; KNOB33, HI medium) | MIC ([3]; KNOB64, HI medium) | MIC ([3]; KNOB67, HI medium) | MIC ([4]; JCM1373, HI medium)
15 µg/mL: MIC ([1]; KNOB16, HI medium, 24 H later) | MIC ([1]; KNOB23, HI medium, 24 H later) | MIC ([1]; KNOB23, PSA medium, 48 H later) | MIC ([2]; KNOB38, HI medium, 48 H later) | MIC ([3]; KNOB105, HI medium) | MIC ([3]; KNOB108, HI medium) | MIC ([3]; KNOB110, HI medium) | MIC ([4]; JCM1370, HI medium) | MIC [5]

C[C@H]1O[C@H](O[C@H]2[C@H](O)[C@@H](O)[C@@H](O)[C@H](O)[C@@H]2O)[C@@H](N)C[C@@H]1NC(=N)C(=O)O [KAS, kasugamycin]
8 µg/mL: MIC ([2]; KNOB38, HI medium, 24 H later) | MIC ([2]; KNOB39, HI medium, 24 H later)
64 µg/mL: MIC ([3]; KNOB33, HI medium) | MIC ([3]; KNOB64, HI medium) | MIC ([3]; KNOB67, HI medium) | MIC ([3]; KNOB75, HI medium) | MIC ([4]; JCM1373, HI medium)
128 µg/mL: MIC ([4]; JCM1370, HI medium) | MIC [5]
16 µg/mL: MIC ([1]; KNOB16, PSA medium, 24 H later) | MIC ([1]; KNOB16, PSA medium, 48 H later) | MIC ([1]; KNOB23, PSA medium, 24 H later) | MIC ([2]; KNOB38, HI medium, 48 H later) | MIC ([2]; KNOB39, HI medium, 48 H later)
32 µg/mL: MIC ([1]; KNOB16, HI medium, 24 H later) | MIC ([1]; KNOB16, HI medium, 48 H later) | MIC ([1]; KNOB23, HI medium, 24 H later) | MIC ([1]; KNOB23, HI medium, 48 H later) | MIC ([1]; KNOB23, PSA medium, 48 H later) | MIC ([3]; KNOB30, HI medium) | MIC ([3]; KNOB105, HI medium) | MIC ([3]; KNOB106, HI medium) | MIC ([3]; KNOB108, HI medium) | MIC ([3]; KNOB110, HI medium)

[H]/N=C(/N)N[C@H]1[C@H](O)[C@@H](O)[C@H](O[C@@H]2O[C@@H](C)[C@](O)(C=O)[C@H]2O[C@@H]2O[C@@H](CO)[C@H](O)[C@@H](O)[C@@H]2NC)[C@@H](N/C(N)=N\[H])[C@@H]1O [ST, streptomycin]
3.9 µg/mL: MIC ([4]; JCM1370, HI medium)
2 µg/mL: MIC [1, 6] | MIC [1, 10]
8 µg/mL: MIC [1, 11] | MIC ([2]; KNOB39, HI medium, 24 H later) | MIC ([2]; KNOB39, HI medium, 48 H later) | MIC ([2]; Ralstonia solanacearum, 24 h) | MIC ([2]; Ralstonia solanacearum, 48 h)
0.39 µg/mL: MIC [5, 22]
0.78 µg/mL: MIC [3, 15]
7.8 µg/mL: MIC ([4]; JCM1373, HI medium)
1.56 µg/mL: MIC [3, 14] | MIC ([3]; 24 h, KNOB64, HI medium) | MIC [3, 16] | MIC [3, 17] | MIC [3, 18] | MIC [3, 19] | MIC [3, 20] | MIC [3, 21]
1 µg/mL: MIC [1, 8] | MIC [1, 12]
4 µg/mL: MIC [1, 7] | MIC [1, 9] | MIC [1, 13]
